Results: US9255090B2, “Heterocyclyl derivatives and their use as prostaglandin D2 receptor modulators” (Actelion Pharmaceuticals Ltd., priority 2012, dated 2016)

What was measured:
hCRTH2 receptor = hCRTH2 receptor (Homo sapiens (Human), UniProt Q9Y5Y4); experiment: hCRTH2 receptor membranes radioligand (3H-PGD2) displacement assay; assay type: binding; settings: 3H-PGD2 radioligand displacement, HEK293-hCRTH2 membranes
Procedure, shortened: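 Compound was first mixed with buffer, then 3H-PGD2 was added at 2.5 nM, and the reaction was started with hCRTH2 membranes from HEK293 cells at 20 μg/well. After 90 min at room temperature, mixtures were filtered and washed with ice-cold buffer, and retained radioactivity was counted.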

eosinophils = experiment: Eosinophil shape change assay with human plasma; assay type: cell-based; settings: Homo sapiens, Eosinophil, human plasma (50%), PGD2 100 nM activation, antagonistic activity
Procedure, shortened: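 Human polymorphonuclear cells stained with anti-CD49d-APC, combined with compound-preincubated human plasma (50% of final volume, 4×10^6 cells/ml) for 10 min at 37° C., then stimulated 5 min with 100 nM PGD2 and fixed. Flow cytometry scored percent eosinophils with increased forward scatter.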

Sequence of hCRTH2 receptor (Q9Y5Y4 whole entry): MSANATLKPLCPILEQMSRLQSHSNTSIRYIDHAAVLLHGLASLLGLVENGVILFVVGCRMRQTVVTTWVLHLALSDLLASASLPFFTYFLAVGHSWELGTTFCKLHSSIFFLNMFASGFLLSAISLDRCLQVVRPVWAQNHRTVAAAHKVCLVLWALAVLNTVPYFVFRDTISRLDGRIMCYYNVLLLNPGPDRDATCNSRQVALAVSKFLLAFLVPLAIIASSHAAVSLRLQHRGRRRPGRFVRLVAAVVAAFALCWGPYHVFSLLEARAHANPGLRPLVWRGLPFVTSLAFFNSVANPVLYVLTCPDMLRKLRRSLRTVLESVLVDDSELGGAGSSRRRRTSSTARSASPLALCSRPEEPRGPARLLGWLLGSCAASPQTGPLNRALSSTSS

SMILES: CCOc1ccc(CC(=O)O)cc1-c1ccc(F)c2c1CN(C(=O)CC1(c3cccc(F)c3)CC1)CC2 [Example 275, [4-Ethoxy-3-(5-fluoro-2-{2-[1-(3-fluoro-phenyl)-cyclopropyl]-acetyl}-1,2,3,4-tetrahydro-isoquinolin-8-yl)-phenyl]-acetic acid]
- IC50 (hCRTH2 receptor): 6.8 nM
- IC50 (eosinophils): 76 nM

SMILES: CCOc1ccc(CC(=O)O)cc1-c1ccc(F)c2c1CN(C(=O)CC1(c3ccc(F)cc3)CC1)CC2 [Example 277, [4-Ethoxy-3-(5-fluoro-2-{2-[1-(4-fluoro-phenyl)-cyclopropyl]-acetyl}-1,2,3,4-tetrahydro-isoquinolin-8-yl)-phenyl]-acetic acid]
- IC50 (hCRTH2 receptor): 1.9 nM
- IC50 (eosinophils): 21 nM

SMILES: CCOc1ccc(CC(=O)O)cc1-c1ccc(F)c2c1CN(C(=O)CCc1ccc(F)cc1)CC2 [Example 310, (4-Ethoxy-3-{5-fluoro-2-[3-(4-fluoro-phenyl)-propionyl]-1,2,3,4-tetrahydro-isoquinolin-8-yl}-phenyl)-acetic acid]
- IC50 (hCRTH2 receptor): 1.7 nM
- IC50 (eosinophils): 7 nM

SMILES: CCOc1cc(CC(=O)O)ccc1-c1ccc(F)c2c1CN(C(=O)CCc1cccc(C)n1)CC2 [Example 321, (3-Ethoxy-4-{5-fluoro-2-[3-(6-methyl-pyridin-2-yl)-propionyl]-1,2,3,4-tetrahydro-isoquinolin-8-yl}-phenyl)-acetic acid]
- IC50 (hCRTH2 receptor): 7.3 nM
- IC50 (eosinophils): 20 nM

SMILES: CCOc1ccc(CC(=O)O)cc1-c1ccc(F)c2c1CN(C(=O)CCc1cccc(C)n1)CC2 [Example 329, (4-Ethoxy-3-{5-fluoro-2-[3-(6-methyl-pyridin-2-yl)-propionyl]-1,2,3,4-tetrahydro-isoquinolin-8-yl}-phenyl)-acetic acid]
- IC50 (hCRTH2 receptor): 4.2 nM
- IC50 (eosinophils): 21 nM

SMILES: CCOc1ccc(CC(=O)O)cc1-c1ccc(F)c2c1CN(C(=O)CCc1ccccn1)CC2 [Example 348, {4-Ethoxy-3-[5-fluoro-2-(3-pyridin-2-yl-propionyl)-1,2,3,4-tetrahydro-isoquinolin-8-yl]-phenyl}-acetic acid]
- IC50 (hCRTH2 receptor): 2.7 nM
- IC50 (eosinophils): 16 nM

SMILES: COc1cc(CC(=O)O)ccc1-c1ccc(F)c2c1CN(C(=O)CC(C)(C)c1ccc(F)cc1)CC2 [Example 358, (4-{5-Fluoro-2-[3-(4-fluoro-phenyl)-3-methyl-butyryl]-1,2,3,4-tetrahydro-isoquinolin-8-yl}-3-methoxy-phenyl)-acetic acid]
- IC50 (hCRTH2 receptor): 1.1 nM
- IC50 (eosinophils): 11 nM

SMILES: COc1ccc(CC(=O)O)cc1-c1ccc(F)c2c1CN(C(=O)CC(C)(C)c1ccc(F)cc1)CC2 [Example 363, (3-{5-Fluoro-2-[3-(4-fluoro-phenyl)-3-methyl-butyryl]-1,2,3,4-tetrahydro-isoquinolin-8-yl}-4-methoxy-phenyl)-acetic acid]
- IC50 (hCRTH2 receptor): 2.4 nM
- IC50 (eosinophils): 20 nM

SMILES: CCOc1ccc(CC(=O)O)cc1-c1ccc(F)c2c1CN(C(=O)OCc1cnccn1)CC2 [Example 365, 8-(5-Carboxymethyl-2-ethoxy-phenyl)-5-fluoro-3,4-dihydro-1H-isoquinoline-2-carboxylic acid pyrazin-2-ylmethyl ester]
- IC50 (hCRTH2 receptor): 3.9 nM
- IC50 (eosinophils): 32 nM

SMILES: CCOc1ccc(CC(=O)O)cc1-c1ccc(F)c2c1CN(C(=O)OCc1ncc(C)cc1F)CC2 [Example 366, 8-(5-Carboxymethyl-2-ethoxy-phenyl)-5-fluoro-3,4-dihydro-1H-isoquinoline-2-carboxylic acid 3-fluoro-5-methyl-pyridin-2-ylmethyl ester]
- IC50 (hCRTH2 receptor): 4.2 nM
- IC50 (eosinophils): 65 nM

SMILES: CCOc1ccc(CC(=O)O)cc1-c1ccc(F)c2c1CN(C(=O)O[C@@H](C)c1ccccc1)CC2 [Example 368, 8-(5-Carboxymethyl-2-ethoxy-phenyl)-5-fluoro-3,4-dihydro-1H-isoquinoline-2-carboxylic acid (S)-1-phenyl-ethyl ester]
- IC50 (hCRTH2 receptor): 5.5 nM
- IC50 (eosinophils): 46 nM

SMILES: CCOc1ccc(CC(=O)O)cc1-c1ccc(F)c2c1CN(C(=O)OCC1CCCC1)CC2 [Example 369, 8-(5-Carboxymethyl-2-ethoxy-phenyl)-5-fluoro-3,4-dihydro-1H-isoquinoline-2-carboxylic acid cyclopentylmethyl ester]
- IC50 (hCRTH2 receptor): 8.7 nM
- IC50 (eosinophils): 266 nM

SMILES: CCOc1ccc(CC(=O)O)cc1-c1ccc(F)c2c1CN(C(=O)OCCC(C)C)CC2 [Example 370, 8-(5-Carboxymethyl-2-ethoxy-phenyl)-5-fluoro-3,4-dihydro-1H-isoquinoline-2-carboxylic acid 3-methyl-butyl ester]
- IC50 (hCRTH2 receptor): 7 nM
- IC50 (eosinophils): 76 nM

SMILES: CCOc1ccc(CC(=O)O)cc1-c1ccc(F)c2c1CN(C(=O)OCc1cccc(C)n1)CC2 [Example 371, 8-(5-Carboxymethyl-2-ethoxy-phenyl)-5-fluoro-3,4-dihydro-1H-isoquinoline-2-carboxylic acid 6-methyl-pyridin-2-ylmethyl ester]
- IC50 (hCRTH2 receptor): 0.6 nM
- IC50 (eosinophils): 23 nM

SMILES: CCOc1ccc(CC(=O)O)cc1-c1ccc(F)c2c1CN(C(=O)OCC1CC1)CC2 [Example 372, 8-(5-Carboxymethyl-2-ethoxy-phenyl)-5-fluoro-3,4-dihydro-1H-isoquinoline-2-carboxylic acid cyclopropylmethyl ester]
- IC50 (hCRTH2 receptor): 5.5 nM
- IC50 (eosinophils): 149 nM

SMILES: CCOc1ccc(CC(=O)O)cc1-c1ccc(F)c2c1CN(C(=O)OCCc1ccccc1)CC2 [Example 373, 8-(5-Carboxymethyl-2-ethoxy-phenyl)-5-fluoro-3,4-dihydro-1H-isoquinoline-2-carboxylic acid phenethyl ester]
- IC50 (hCRTH2 receptor): 1.7 nM
- IC50 (eosinophils): 42 nM

SMILES: CCOc1ccc(CC(=O)O)cc1-c1ccc(F)c2c1CN(C(=O)OC[C@H](C)c1ccccc1)CC2 [Example 374, 8-(5-Carboxymethyl-2-ethoxy-phenyl)-5-fluoro-3,4-dihydro-1H-isoquinoline-2-carboxylic acid (R)-2-phenyl-propyl ester]
- IC50 (hCRTH2 receptor): 4.2 nM
- IC50 (eosinophils): 28 nM

SMILES: CCCCOC(=O)N1CCc2c(F)ccc(-c3cc(CC(=O)O)ccc3OCC)c2C1 [Example 376, 8-(5-Carboxymethyl-2-ethoxy-phenyl)-5-fluoro-3,4-dihydro-1H-isoquinoline-2-carboxylic acid butyl ester]
- IC50 (hCRTH2 receptor): 6.3 nM
- IC50 (eosinophils): 59 nM

SMILES: CCOc1ccc(CC(=O)O)cc1-c1ccc(F)c2c1CN(C(=O)OCC(C)C)CC2 [Example 377, 8-(5-Carboxymethyl-2-ethoxy-phenyl)-5-fluoro-3,4-dihydro-1H-isoquinoline-2-carboxylic acid isobutyl ester]
- IC50 (hCRTH2 receptor): 3.4 nM
- IC50 (eosinophils): 123 nM

SMILES: CCOc1cc(CC(=O)O)ccc1-c1ccc(F)c2c1CN(C(=O)O[C@@H](C)c1ccccc1)CC2 [Example 389, 8-(4-Carboxymethyl-2-ethoxy-phenyl)-5-fluoro-3,4-dihydro-1H-isoquinoline-2-carboxylic acid (S)-1-phenyl-ethyl ester]
- IC50 (hCRTH2 receptor): 16.7 nM
- IC50 (eosinophils): 122 nM

SMILES: CCOc1ccc(CC(=O)O)cc1-c1ccc(F)c2c1CN(C(=O)OCc1ccccn1)CC2 [Example 394, 8-(5-Carboxymethyl-2-ethoxy-phenyl)-5-fluoro-3,4-dihydro-1H-isoquinoline-2-carboxylic acid pyridin-2-ylmethyl ester]
- IC50 (hCRTH2 receptor): 1.2 nM
- IC50 (eosinophils): 12 nM

SMILES: CCOc1ccc(CC(=O)O)cc1-c1ccc(F)c2c1CN(C(=O)OCC1CCCCC1)CC2 [Example 396, 8-(5-Carboxymethyl-2-ethoxy-phenyl)-5-fluoro-3,4-dihydro-1H-isoquinoline-2-carboxylic acid cyclohexylmethyl ester]
- IC50 (hCRTH2 receptor): 2.6 nM
- IC50 (eosinophils): 18 nM

SMILES: CCOc1cc(CC(=O)O)ccc1-c1ccc(F)c2c1CN(C(=O)OCC1CCCCC1)CC2 [Example 397, 8-(4-Carboxymethyl-2-ethoxy-phenyl)-5-fluoro-3,4-dihydro-1H-isoquinoline-2-carboxylic acid cyclohexylmethyl ester]
- IC50 (hCRTH2 receptor): 6.8 nM
- IC50 (eosinophils): 15 nM

SMILES: CCOc1ccc(CC(=O)O)cc1-c1ccc(F)c2c1CN(C(=O)OCc1ccc(F)cc1)CC2 [Example 398, 8-(5-Carboxymethyl-2-ethoxy-phenyl)-5-fluoro-3,4-dihydro-1H-isoquinoline-2-carboxylic acid 4-fluoro-benzyl ester]
- IC50 (hCRTH2 receptor): 3.4 nM
- IC50 (eosinophils): 13 nM

SMILES: CCOc1ccc(CC(=O)O)cc1-c1ccc(F)c2c1CN(C(=O)OCc1cccc(F)c1)CC2 [Example 399, 8-(5-Carboxymethyl-2-ethoxy-phenyl)-5-fluoro-3,4-dihydro-1H-isoquinoline-2-carboxylic acid 3-fluoro-benzyl ester]
- IC50 (hCRTH2 receptor): 4.7 nM
- IC50 (eosinophils): 29 nM

SMILES: CCOc1ccc(CC(=O)O)cc1-c1ccc(F)c2c1CN(C(=O)OCc1ccccc1F)CC2 [Example 400, 8-(5-Carboxymethyl-2-ethoxy-phenyl)-5-fluoro-3,4-dihydro-1H-isoquinoline-2-carboxylic acid 2-fluoro-benzyl ester]
- IC50 (hCRTH2 receptor): 12.8 nM
- IC50 (eosinophils): 21 nM

SMILES: CCOc1ccc(CC(=O)O)cc1-c1ccc(F)c2c1CN(C(=O)OCc1cc(F)ccc1F)CC2 [Example 401, 8-(5-Carboxymethyl-2-ethoxy-phenyl)-5-fluoro-3,4-dihydro-1H-isoquinoline-2-carboxylic acid 2,5-difluoro-benzyl ester]
- IC50 (hCRTH2 receptor): 4.5 nM
- IC50 (eosinophils): 26 nM

SMILES: CCOc1ccc(CC(=O)O)cc1-c1ccc(F)c2c1CN(C(=O)OCc1cc(Cl)ccc1F)CC2 [Example 402, 8-(5-Carboxymethyl-2-ethoxy-phenyl)-5-fluoro-3,4-dihydro-1H-isoquinoline-2-carboxylic acid 5-chloro-2-fluoro-benzyl ester]
- IC50 (hCRTH2 receptor): 4.3 nM
- IC50 (eosinophils): 20 nM

SMILES: CCOc1ccc(CC(=O)O)cc1-c1ccc(F)c2c1CN(C(=O)OCc1ccc(F)cc1F)CC2 [Example 403, 8-(5-Carboxymethyl-2-ethoxy-phenyl)-5-fluoro-3,4-dihydro-1H-isoquinoline-2-carboxylic acid 2,4-difluoro-benzyl ester]
- IC50 (hCRTH2 receptor): 1.7 nM
- IC50 (eosinophils): 15 nM
